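These data come from cells grown in 96-well plates and exposed to compound for 48 hours at five concentrations. GI50 = concentration required for 50% inhibition of growth.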 Active and inactive are the calls of the source. Rule as the data show it: active = GI50 up to about 1.1 µM and inactive = higher.
Experiments:
Test in all cases: inhibition of tumour cell growth, NCI panel, 48 h
OVCAR-8 = test system: OVCAR-8
NCI-H522 = test system: NCI-H522
SK-MEL-2 = test system: SK-MEL-2
OVCAR-4 = test system: OVCAR-4
M14 = test system: M14
SNB-75 = test system: SNB-75
BT-549 = test system: BT-549
MOLT-4 = test system: MOLT-4
MDA-N = test system: MDA-N
MCF7 = test system: MCF7
NCI-H226 = test system: NCI-H226
NCI/ADR-RES = test system: NCI/ADR-RES
ACHN = test system: ACHN
HT-29 = test system: HT-29
RXF 393 = test system: RXF 393
UACC-62 = test system: UACC-62
EKVX = test system: EKVX
SF-295 = test system: SF-295
HCT-15 = test system: HCT-15
CAKI-1 = test system: CAKI-1
HCT-116 = test system: HCT-116
LOX IMVI = test system: LOX IMVI
DU-145 = test system: DU-145
SNB-19 = test system: SNB-19
KM12 = test system: KM12
MDA-MB-435 = test system: MDA-MB-435
SK-MEL-28 = test system: SK-MEL-28
MDA-MB-231 = test system: MDA-MB-231
Malme-3M = test system: Malme-3M
SK-OV-3 = test system: SK-OV-3
OVCAR-3 = test system: OVCAR-3
K562 = test system: K562
SN12C = test system: SN12C
A498 = test system: A498
A549 = test system: A549
HCC 2998 = test system: HCC 2998
HOP-62 = test system: HOP-62
UACC-257 = test system: UACC-257
IGROV-1 = test system: IGROV-1
HL-60 = test system: HL-60
TK-10 = test system: TK-10
NCI-H23 = test system: NCI-H23
PC-3 = test system: PC-3
OVCAR-5 = test system: OVCAR-5
Hs-578T = test system: Hs-578T
SF-268 = test system: SF-268
U-251 = test system: U-251
SW-620 = test system: SW-620
RPMI-8226 = test system: RPMI-8226
T47D = test system: T47D
CCRF-CEM = test system: CCRF-CEM
SF-539 = test system: SF-539
UO-31 = test system: UO-31
786-0 = test system: 786-0
COLO 205 = test system: COLO 205
SK-MEL-5 = test system: SK-MEL-5
HOP-92 = test system: HOP-92
NCI-H460 = test system: NCI-H460

N#Cc1nnn(-c2ccc(Br)cc2)c1O
GI50 (OVCAR-8): > 100 µM (inactive) | GI50 (NCI-H522): > 100 µM (inactive) | GI50 (SK-MEL-2): > 100 µM (inactive) | GI50 (OVCAR-4): > 100 µM (inactive) | GI50 (M14): > 100 µM (inactive) | GI50 (SNB-75): > 100 µM (inactive) | GI50 (BT-549): > 100 µM (inactive) | GI50 (MOLT-4): 10 µM (inactive) | GI50 (MDA-N): 46.9 µM (inactive) | GI50 (MCF7): > 100 µM (inactive) | GI50 (NCI-H226): > 100 µM (inactive) | GI50 (NCI/ADR-RES): > 100 µM (inactive) | GI50 (ACHN): > 100 µM (inactive) | GI50 (HT-29): > 100 µM (inactive) | GI50 (RXF 393): > 100 µM (inactive) | GI50 (UACC-62): > 100 µM (inactive) | GI50 (EKVX): > 100 µM (inactive) | GI50 (SF-295): > 100 µM (inactive) | GI50 (HCT-15): > 100 µM | GI50 (CAKI-1): > 100 µM (inactive) | GI50 (HCT-116): > 100 µM (inactive) | GI50 (LOX IMVI): > 100 µM (inactive) | GI50 (DU-145): > 100 µM (inactive) | GI50 (SNB-19): > 100 µM (inactive) | GI50 (KM12): > 100 µM (inactive) | GI50 (MDA-MB-435): > 100 µM (inactive) | GI50 (SK-MEL-28): > 100 µM (inactive) | GI50 (MDA-MB-231): > 100 µM (inactive) | GI50 (Malme-3M): > 100 µM (inactive) | GI50 (SK-OV-3): > 100 µM (inactive) | GI50 (OVCAR-3): > 100 µM (inactive) | GI50 (K562): > 100 µM (inactive) | GI50 (SN12C): > 100 µM (inactive) | GI50 (A498): > 100 µM (inactive) | GI50 (A549): > 100 µM (inactive) | GI50 (HCC 2998): > 100 µM (inactive) | GI50 (HOP-62): > 100 µM (inactive) | GI50 (UACC-257): > 100 µM (inactive) | GI50 (IGROV-1): > 100 µM (inactive) | GI50 (HL-60): > 100 µM (inactive) | GI50 (TK-10): > 100 µM (inactive) | GI50 (NCI-H23): > 100 µM (inactive) | GI50 (PC-3): > 100 µM (inactive) | GI50 (OVCAR-5): > 100 µM (inactive) | GI50 (Hs-578T): > 100 µM (inactive) | GI50 (SF-268): > 100 µM (inactive) | GI50 (U-251): > 100 µM (inactive) | GI50 (SW-620): > 100 µM (inactive) | GI50 (RPMI-8226): > 100 µM (inactive) | GI50 (T47D): > 100 µM (inactive) | GI50 (CCRF-CEM): > 100 µM (inactive) | GI50 (SF-539): > 100 µM (inactive) | GI50 (UO-31): > 100 µM (inactive) | GI50 (786-0): > 100 µM (inactive) | GI50 (COLO 205): > 100 µM (inactive)

Oc1ccc(C(=C(Br)c2ccccc2)c2ccc(O)cc2)cc1
GI50 (OVCAR-8): 6.58 µM (inactive) | GI50 (NCI-H522): 4.47 µM (inactive) | GI50 (SK-MEL-2): 5.74 µM (inactive) | GI50 (OVCAR-4): > 10 µM (inactive) | GI50 (M14): 4.15 µM (inactive) | GI50 (BT-549): 4.44 µM (inactive) | GI50 (SK-MEL-5): 3.47 µM (inactive) | GI50 (MOLT-4): 5.48 µM (inactive) | GI50 (MDA-N): 1.83 µM (inactive) | GI50 (MCF7): 3.13 µM (inactive) | GI50 (NCI-H226): 15.8 µM (inactive) | GI50 (NCI/ADR-RES): 3.32 µM (inactive) | GI50 (ACHN): 9.16 µM (inactive) | GI50 (HT-29): 1.91 µM (inactive) | GI50 (RXF 393): 12.1 µM (inactive) | GI50 (UACC-62): 8.47 µM (inactive) | GI50 (EKVX): 11.5 µM (inactive) | GI50 (SF-295): 6.14 µM (inactive) | GI50 (HCT-15): 3.72 µM | GI50 (CAKI-1): 16.6 µM (inactive) | GI50 (HCT-116): 4.25 µM (inactive) | GI50 (LOX IMVI): 4.08 µM (inactive) | GI50 (DU-145): 13.1 µM (inactive) | GI50 (HOP-92): 10 µM (inactive) | GI50 (NCI-H460): 11.1 µM (inactive) | GI50 (SNB-19): 5.15 µM (inactive) | GI50 (KM12): 3.61 µM (inactive) | GI50 (MDA-MB-435): 1.52 µM (inactive) | GI50 (SK-MEL-28): 10.4 µM (inactive) | GI50 (MDA-MB-231): 10.9 µM (inactive) | GI50 (Malme-3M): 5.52 µM (inactive) | GI50 (SK-OV-3): 5.01 µM (inactive) | GI50 (OVCAR-3): 3.15 µM (inactive) | GI50 (K562): 2.78 µM (inactive) | GI50 (SN12C): 5.92 µM (inactive) | GI50 (A498): 18.3 µM (inactive) | GI50 (A549): 4.4 µM (inactive) | GI50 (HCC 2998): 8.65 µM (inactive) | GI50 (HOP-62): 10.4 µM (inactive) | GI50 (UACC-257): 12.6 µM (inactive) | GI50 (IGROV-1): 4.45 µM (inactive) | GI50 (HL-60): 3.39 µM (inactive) | GI50 (TK-10): 13.8 µM (inactive) | GI50 (NCI-H23): 10.4 µM (inactive) | GI50 (PC-3): 7.16 µM (inactive) | GI50 (OVCAR-5): 17.3 µM (inactive) | GI50 (Hs-578T): 4.83 µM (inactive) | GI50 (SF-268): 4.9 µM (inactive) | GI50 (U-251): 4.51 µM (inactive) | GI50 (SW-620): 3.57 µM (inactive) | GI50 (RPMI-8226): 4.66 µM (inactive) | GI50 (T47D): 10.7 µM (inactive) | GI50 (CCRF-CEM): 7.52 µM (inactive) | GI50 (SF-539): 6.18 µM (inactive) | GI50 (UO-31): 6.59 µM (inactive) | GI50 (786-0): 9.77 µM (inactive) | GI50 (COLO 205): 3.73 µM (inactive)

COc1ccc2c(=O)oc3c(OC)cc(CCN(C)C)c4c(=O)oc1c2c34 [TASPINE]
GI50 (OVCAR-8): 6.93 µM (inactive) | GI50 (NCI-H522): 6.76 µM (inactive) | GI50 (SK-MEL-2): 12.1 µM (inactive) | GI50 (M14): 9.31 µM (inactive) | GI50 (BT-549): 7.74 µM (inactive) | GI50 (SK-MEL-5): 7.29 µM (inactive) | GI50 (MOLT-4): 6.79 µM (inactive) | GI50 (MDA-N): 7.82 µM (inactive) | GI50 (MCF7): 5.86 µM (inactive) | GI50 (NCI-H226): 24.2 µM (inactive) | GI50 (NCI/ADR-RES): 7.46 µM (inactive) | GI50 (UACC-62): 8.97 µM (inactive) | GI50 (DU-145): 8.51 µM (inactive) | GI50 (SNB-19): 8.93 µM (inactive) | GI50 (MDA-MB-435): 8.32 µM (inactive) | GI50 (MDA-MB-231): 8.55 µM (inactive) | GI50 (OVCAR-3): 9.86 µM (inactive) | GI50 (SN12C): 7.78 µM (inactive) | GI50 (A498): 10.3 µM (inactive) | GI50 (NCI-H23): 9.27 µM (inactive) | GI50 (PC-3): 10.5 µM (inactive) | GI50 (OVCAR-5): 11.7 µM (inactive) | GI50 (Hs-578T): 10.3 µM (inactive) | GI50 (SF-268): 7.33 µM (inactive) | GI50 (U-251): 9.68 µM (inactive) | GI50 (T47D): 9.35 µM (inactive) | GI50 (CCRF-CEM): 0.948 µM (active) | GI50 (COLO 205): 9.16 µM (inactive)

Reference: ChEMBL document CHEMBL1201862, “PubChem BioAssay data set” (2004)
